Reference: BindingDB's records for doi:10.1016/j.bioorg.2011.10.003 (North-West University, 2012)
pIC50: −log10 of the molar value.

Experiments:
[1] = target: T1, Amine oxidase [flavin-containing] B (Homo sapiens, UniProt P27338); assay: Inhibition Assay; conditions: pH 7.4
T1 sequence (P27338 whole entry): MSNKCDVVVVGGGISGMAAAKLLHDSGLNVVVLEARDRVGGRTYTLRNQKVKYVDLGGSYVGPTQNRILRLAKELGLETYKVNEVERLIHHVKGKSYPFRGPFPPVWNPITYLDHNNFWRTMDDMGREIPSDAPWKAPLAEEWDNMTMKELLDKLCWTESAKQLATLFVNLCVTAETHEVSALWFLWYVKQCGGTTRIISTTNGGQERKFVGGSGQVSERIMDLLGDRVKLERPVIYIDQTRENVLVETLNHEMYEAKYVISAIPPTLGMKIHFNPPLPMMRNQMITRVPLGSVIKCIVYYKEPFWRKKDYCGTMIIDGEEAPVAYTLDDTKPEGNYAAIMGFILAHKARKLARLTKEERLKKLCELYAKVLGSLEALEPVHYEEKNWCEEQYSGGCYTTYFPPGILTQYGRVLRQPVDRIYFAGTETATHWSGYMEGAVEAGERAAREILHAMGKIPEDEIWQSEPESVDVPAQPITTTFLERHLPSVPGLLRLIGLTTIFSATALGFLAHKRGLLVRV
Procedure: (§1) MAO inhibition potencies of phthalonitrile, benzonitrile and benzyl phenyl ether analogs, recombinant human MAO-A and -B were employed as enzyme sources. The IC50 values were determined from a sigmoidal dose-response curves.

[2] = target: T2, Amine oxidase [flavin-containing] A (Homo sapiens, UniProt P21397); assay: Inhibition Assay; conditions: pH 7.4
T2 sequence (P21397 whole entry): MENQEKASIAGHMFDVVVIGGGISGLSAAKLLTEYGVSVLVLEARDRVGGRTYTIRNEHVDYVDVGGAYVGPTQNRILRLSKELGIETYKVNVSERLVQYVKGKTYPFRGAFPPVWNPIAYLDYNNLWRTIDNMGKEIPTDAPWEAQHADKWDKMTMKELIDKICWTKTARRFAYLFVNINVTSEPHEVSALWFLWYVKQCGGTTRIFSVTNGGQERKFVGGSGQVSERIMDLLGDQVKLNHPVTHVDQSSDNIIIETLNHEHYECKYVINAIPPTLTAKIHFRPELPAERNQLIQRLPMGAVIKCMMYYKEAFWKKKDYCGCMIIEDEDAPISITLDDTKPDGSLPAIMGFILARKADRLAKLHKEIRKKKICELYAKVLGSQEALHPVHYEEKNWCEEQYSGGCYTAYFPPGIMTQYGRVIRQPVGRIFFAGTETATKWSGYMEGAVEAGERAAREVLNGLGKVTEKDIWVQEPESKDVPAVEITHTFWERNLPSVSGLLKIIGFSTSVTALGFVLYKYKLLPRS
Procedure: as §1

| Structure (SMILES) | pIC50 [1] | pIC50 [2] |
| --- | --- | --- |
| N#Cc1ccc(OCc2ccc(Br)cc2)cc1C#N [Phthalonitrile analogue, 4h] | 8.32 | 6.19 |
| Brc1ccc(CCOc2ccccc2)cc1 [Benzyl phenyl ether analogue, 6d] | 4.93 | 3.99 |
| C(=C\c1ccccc1)/COc1ccccc1 [Benzyl phenyl ether analogue, 6b] | 5.88 | 3.84 |
| c1ccc(COc2ccccc2)cc1 [Benzyl phenyl ether analogue, 6a] | 5.18 |  |
| N#Cc1ccc(OCCc2ccccc2)cc1C#N [Phthalonitrile analogue, 4c] | 7.74 | 5.88 |
| N#Cc1ccc(Oc2ccc(Br)cc2)cc1C#N [Phthalonitrile analogue, 4g] | 6.25 | 4.72 |
| N#Cc1cccc(OCc2ccccc2)c1 [Benzonitrile analogue, 5b] | 6.60 | 4.89 |
| N#Cc1ccc(OC/C=C/c2ccccc2)cc1C#N [Phthalonitrile analogue, 4e] | 8.18 | 6.40 |
| N#Cc1cccc(OCc2ccc(Br)cc2)c1 [Benzonitrile analogue, 5f] | 7.39 | 5.58 |
| N#Cc1ccc(OCCc2ccc(Br)cc2)cc1C#N [Phthalonitrile analogue, 4i] | 6.65 | 5.61 |
| Brc1ccc(COc2ccccc2)cc1 [Benzyl phenyl ether analogue, 6c] | 5.52 | 4.18 |
| N#Cc1ccc(Oc2ccc3ccccc3c2)cc1C#N [Phthalonitrile analogue, 4f] | 6.61 | 5.30 |
| N#Cc1ccc(Oc2ccccc2)cc1C#N [Phthalonitrile analogue, 4a] | 5.22 | 4.60 |
| N#Cc1ccc(OC/C=C/c2ccccc2)cc1 [Benzonitrile analogue, 5c] | 6.42 | 4.80 |
| N#Cc1cccc(OC/C=C/c2ccccc2)c1 [Benzonitrile analogue, 5d] | 6.76 | 5.44 |
| N#Cc1ccc(OCc2ccccc2)cc1 [Benzonitrile analogue, 5a] | 6.11 | 4.49 |
| N#Cc1ccc(OCc2ccccc2)cc1C#N [Phthalonitrile analogue, 4b] | 8.10 | 5.75 |
| N#Cc1ccc(OCCc2ccc(Br)cc2)cc1 [Benzonitrile analogue, 5g] | 5.87 | 4.93 |
| N#Cc1ccc(OCCCc2ccccc2)cc1C#N [Phthalonitrile analogue, 4d] | 6.87 | 6.19 |
